Key:
[1] = test system: isolated rat heart; assay: Reperfusion Induced Arrhythmias in the isolated rat heart; set-up: species or system rat (Charles Foster); conditions: LAD ligation 15 min, reperfusion 30 min, read-out: IC50 for VFD (50% reduction of duration of ventricular fibrillation)
Experimental: Reperfusion Induced Arrhythmias in the isolated rat heart:
[…] Charles Foster rats of either sex (250-300 g) were sacrificed by stunning and exsanguination. Hearts were quickly removed and perfused according to Langendorffs method. Different concentrations of test compound were added into the perfusing medium. After 20 min of the equilibration period Left Anterior Descending (LAD) coronary artery was ligated. 15 minutes later the ligature was removed and reperfusion was allowed for next 30 minutes. During reperfusion period ECG was monitored. Duration of Ventricular Fibrillation (VFD) was the main parameter of assessment. Anti-arrhythmic activity was examined as the concentration of the test compound required to cause a 50% reduction of the VFD.

[2] = target: T1, Na^+ /H^+ -exchanger (Oryctolagus cuniculus, UniProt P23791); assay: Sodium-Proton exchange inhibition in rabbit erythrocytes; assay type: cell-based, rabbit (Albino, New Zealand strain); conditions: 37° C., 1 hour, hyperosmolar sucrose buffer, 0.1 mM Ouabain, read-out: IC50 (concentration necessary to reduce the erythrocyte sodium content to 50%)
T1 construct: Na^+ /H^+ -exchanger activity in the erythrocytes; endogenous in cells; host or cells: erythrocytes (whole blood from the ear vein) of cholesterol-fed New Zealand albino rabbits
T1 sequence (P23791 whole entry): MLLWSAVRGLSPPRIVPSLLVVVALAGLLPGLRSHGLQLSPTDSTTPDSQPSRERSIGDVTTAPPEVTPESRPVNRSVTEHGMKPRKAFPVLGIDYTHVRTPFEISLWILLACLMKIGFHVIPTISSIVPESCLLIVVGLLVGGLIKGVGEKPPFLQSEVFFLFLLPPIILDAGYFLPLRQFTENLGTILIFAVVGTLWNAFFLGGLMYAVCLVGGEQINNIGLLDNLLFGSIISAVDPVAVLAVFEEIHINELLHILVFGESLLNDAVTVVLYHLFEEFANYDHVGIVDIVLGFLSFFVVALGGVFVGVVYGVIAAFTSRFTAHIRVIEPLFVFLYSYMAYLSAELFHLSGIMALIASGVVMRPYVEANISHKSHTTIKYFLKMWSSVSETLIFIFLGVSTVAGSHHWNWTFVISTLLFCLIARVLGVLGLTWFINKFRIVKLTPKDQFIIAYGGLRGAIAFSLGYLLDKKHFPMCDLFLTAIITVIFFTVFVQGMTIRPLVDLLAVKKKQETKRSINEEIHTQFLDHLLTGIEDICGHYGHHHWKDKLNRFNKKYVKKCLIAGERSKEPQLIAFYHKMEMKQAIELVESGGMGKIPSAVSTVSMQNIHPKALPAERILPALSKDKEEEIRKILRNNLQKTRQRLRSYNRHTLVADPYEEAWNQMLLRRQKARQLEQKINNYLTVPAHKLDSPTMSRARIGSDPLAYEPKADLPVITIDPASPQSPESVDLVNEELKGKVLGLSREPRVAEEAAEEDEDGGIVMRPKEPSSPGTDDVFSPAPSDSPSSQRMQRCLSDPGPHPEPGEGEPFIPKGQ
Excerpt: Sodium-Proton exchange inhibition in rabbit erythrocytes:
Albino rabbits of New Zealand strain were fed with 2% cholesterol diet for six weeks prior to collecting blood for the determination of Na^+ /H^+ -exchanger activity in the erythrocytes. Eypercholesteremia has been reported to increase the exchanger activity in the rabbit erythrocytes (Scholz et al, 1990; Arteriosklerose--Neue Aspekte aus Zellbiologie und Molekulargenetik, Epidemiologie und Klinik; Assmann, G, et al, Eds, Braunschweig, Wiesbaden, Vieweg, 296-302). Blood samples were collected from the ear vein and hematocrit was determined. About 200 μl of blood was incubated at 37° C. for 1 hour with hyperosmolar sucrose buffer containing 0.1 mM Ouabain in the presence and absence of test sample. After the incubation period, the reaction was stopped by addition of 5 ml of ice cold MgCl2 solution containing 0.1 mM Ouabain. The erythrocytes were washed three times with 5 ml quantities of MgCl2 solution. They were hemolyzed by the addition of 4 ml of distilled water and the sodium content of the hemolyzed was determined by flame-photometry. The activity of the test compound was determined by its ability to reduce the sodium content of the erythrocyte and was expressed as IC50 which is the concentration necessary to reduce the erythrocyte sodium content to 50%.

[3] = test system: anaesthetized rat; assay: Myocardial Infarction in the Anaesthetized Rat; assay type: in vivo; conditions: intravenous 5 minutes before ligation; 1 h ligation, 1 h reperfusion
Experimental: Myocardial Infarction in the Anaesthetized Rat:
Rats were prepared as in earlier experiments. Compounds were administered intravenously 5 minutes before ligation. The experiment consisted of one hour of ligation followed by one hour of reperfusion. Myocardial infarction was assessed by double dye technique using Evans blue and 2,3,5-Triphenyltetrazolium to identify area at risk and area of infarction respectively. Extent of infarction was expressed as a percent of area at risk. (Simpson et al, 1987, Circulation Research, 60, 666-673)

[4] = test system: anaesthetized rats; assay: Ischemia-Induced Arrhythmias in Anaesthetized Rats; assay type: in vivo, rat (Male Charles Foster); set-up: key to VF Percent inhibition: NP: No protection
Experimental: Ischemia-Induced Arrhythmias in Anaesthetized Rats:
Male Charles Foster rats (220-260 g) were anaesthetized with Pentobarbitone sodium. Animals were artificially ventilated. Blood pressure was recorded through carotid artery. Thoracotomy was performed to expose the heart. Left Anterior Descending (LAD) coronary artery was identified. Test compound was administered either orally […] before anaesthesia (40 minutes before LAD artery ligation) or intravenously (5 minutes before LAD artery ligation). Resulting arrhythmias during the 15 minute period of ligation were recorded and analyzed according to Lambeth Convention (Walker M. J. A, et al, 1988, Cardiovascular Research, 22, 447-455). Antiarrhythmic effect of the test compound was expressed as dose dependent inhibition of the duration of Ventricular Tachycardia (VT) and Ventricular Fibrillation (VF).

[5] = test system: disturbances in cardiac rhythm; conditions: Circulation 79, 1257-1263 (1989); cited from earlier work
[6] = test system: rat hearts; conditions: isolated rat hearts; Eur. Heart J. 9 {supplement 1}: 167 (1988); cited from earlier work

| SMILES | IC50 [1] [µM] | IC50 [2] [µM] | Protection against infarction [3] [%] | VF Percent inhibition ([4]; Intravenous, 0.1 mg/kg) [%] | VT Percent inhibition ([4]; Intravenous, 0.1 mg/kg) [%] | VF Percent inhibition ([4]; Intravenous, 0.3 mg/kg) [%] | VT Percent inhibition ([4]; Intravenous, 0.3 mg/kg) [%] | VF Percent inhibition ([4]; Intravenous, 1.0 mg/kg) [%] | VT Percent inhibition ([4]; Intravenous, 1.0 mg/kg) [%] | VF Percent inhibition ([4]; Oral, 1 mg/kg) [%] | VT Percent inhibition ([4]; Oral, 1 mg/kg) [%] | suppression of artificially induced ventricular fibrillation [6] | other results |
| --- | --- | --- | --- | --- | --- | --- | --- | --- | --- | --- | --- | --- | --- |
| CC1=C(C(=O)N=C(N)N)Cc2ccccc21 [Compound 2] | 0.025 | 0.09 | 17 | 100 | 57 ± 17 | 100 | 90 ± 3 | 100 | 98 ± 1 | 68 | 26 ± 0 |  | VF Percent inhibition ([4]; Oral, 3 mg/kg): 93%; VT Percent inhibition ([4]; Oral, 3 mg/kg): 31 ± 21%; VF Percent inhibition ([4]; Oral, 10 mg/kg): 00%; VT Percent inhibition ([4]; Oral, 10 mg/kg): 73 ± 8% |
| CC1=C(C(=O)N=C(N)N)Cc2c(Cl)cccc21 [Compound 10] | 0.017 | 0.018 | 68 | 100 | 20 ± 24 | 100 | 81 ± 8 | 100 | 97 ± 1 | 100 | 67 ± 11 |  | VF Percent inhibition ([4]; Oral, 0.1 mg/kg): NP; VT Percent inhibition ([4]; Oral, 0.1 mg/kg): 32 ± 12%; VF Percent inhibition ([4]; Oral, 0.3 mg/kg): 84%; VT Percent inhibition ([4]; Oral, 0.3 mg/kg): 69 ± 11% |
| N=C(N)NC(=O)c1nc(Cl)c(N)nc1N [amiloride] |  |  |  |  |  |  |  |  |  |  |  | suppress an artificially induced ventricular fibrillation completely | antiarrhythmic effect [5]: only slight |
| CCN(c1nc(N)c(C(=O)N=C(N)N)nc1Cl)C(C)C [ethylisopropylamiloride] |  |  |  |  |  |  |  |  |  |  |  | even more potent than amiloride |  |

Reference: patent US5733934A, “Antiarrythmic and cardioprotective substituted indenoylguanidines” (priority 1996, dated 1998)
